Results taken from patent US11021457B2, “Class of isoindolone-imide ring-1,3-dione-2-ene compounds, composition and use thereof” (WIGEN BIOMEDICINE TECHNOLOGY (SHANGHAI) CO., LTD., priority 2017, dated 2021).

What follows are molecules tested on K562 (assay: Inhibition of tumor cell proliferation, CellTiter-Glo, K562). Details: compound concentration 50 μM, 72 hours.
Format: cell-based
Protocol: (§1) For various cell lines, the corresponding complete medium was used, and culture was carried out in an incubator at 37° C. with 5% CO2. The cells were counted, and inoculated into a 96-well plate at 2000-10000 cells/100 μl per well according to the cell volume and growth rate. The suspended cells were treated immediately, and the adherent cells were treated after adherence. The CellTiter-Glo method was used to detect the changes in cell viability 72 hours after the administration, and the cell survival rate at different concentrations was calculated by a formula: Survival rate (%)=(RLU of treatment well−RLU of blank well)/(RLU of control well−RLU of blank well)×100.
(§2) Method for expressing the inhibitory activity of the compounds against the proliferation of tumor cells: Evaluation was made based on the cell survival rate at a compound concentration of 50 μM. 60≤survival rate (%)<90 is considered to have low inhibitory activity against the proliferation of tumor cells (+); 30<survival rate (%)≤60 is considered to have moderate inhibitory activity against the proliferation of tumor cells (++); and survival rate (%)≤30 is considered to have high inhibitory activity against the proliferation of tumor cells (+++).

Row | Compound | Inhibitory activity against proliferation (cell survival rate) K562
1 | O=C1CCC(N2Cc3c(NC=C4C(=O)CC(c5ccccc5F)CC4=O)cccc3C2=O)C(=O)N1 (centres unmarked) [Compound 24] | + (60≤survival rate (%)<90)
2 | O=C1CCC(N2Cc3c(NC=C4C(=O)CC(c5cccc6sccc56)CC4=O)cccc3C2=O)C(=O)N1 (centres unmarked) [Compound 27] | +++ (survival rate (%)≤30)
3 | O=C1CCC(N2Cc3c(NC=C4C(=O)CC(c5cccc6ccccc56)CC4=O)cccc3C2=O)C(=O)N1 (centres unmarked) [Compound 29] | +++ (survival rate (%)≤30)
4 | O=C1CCC(N2Cc3c(NC=C4C(=O)CC(c5c6ccccc6cc6ccccc56)CC4=O)cccc3C2=O)C(=O)N1 (centres unmarked) [Compound 30] | +++ (survival rate (%)≤30)
5 | CN(C)c1ccc(Br)c(C2CC(=O)C(=CNc3cccc4c3CN(C3CCC(=O)NC3=O)C4=O)C(=O)C2)c1 (centres unmarked) [Compound 31] | +++ (survival rate (%)≤30)
6 | COc1ccc(C2CC(=O)C(=CNc3cccc4c3CN(C3CCC(=O)NC3=O)C4=O)C(=O)C2)cc1 (centres unmarked) [Compound 32] | +++ (survival rate (%)≤30)
7 | COC(=O)c1ccc(C2CC(=O)C(=CNc3cccc4c3CN(C3CCC(=O)NC3=O)C4=O)C(=O)C2)cc1 (centres unmarked) [Compound 33] | +++ (survival rate (%)≤30)
8 | O=C1CCC(N2Cc3c(NC=C4C(=O)CC(C5CCCCC5)CC4=O)cccc3C2=O)C(=O)N1 (centres unmarked) [Compound 131] | ++ (30<survival rate (%)≤60)

The molecules below were run on SU-DHL6 (assay: Inhibition of tumor cell proliferation, CellTiter-Glo, SU-DHL6). Details: compound concentration 50 μM, 72 hours.
Format: cell-based
Protocol: as §1, §2

Row | Compound | Inhibitory activity against proliferation (cell survival rate) SU-DHL6
9 | O=C1CCC(N2Cc3c(NC=C4C(=O)CC(c5ccccc5F)CC4=O)cccc3C2=O)C(=O)N1 (centres unmarked) [Compound 24] | +++ (survival rate (%)≤30)
10 | O=C1CCC(N2Cc3c(NC=C4C(=O)CC(c5cccc6sccc56)CC4=O)cccc3C2=O)C(=O)N1 (centres unmarked) [Compound 27] | +++ (survival rate (%)≤30)
11 | O=C1CCC(N2Cc3c(NC=C4C(=O)CC(c5cccc6ccccc56)CC4=O)cccc3C2=O)C(=O)N1 (centres unmarked) [Compound 29] | ++ (30<survival rate (%)≤60)
12 | O=C1CCC(N2Cc3c(NC=C4C(=O)CC(c5c6ccccc6cc6ccccc56)CC4=O)cccc3C2=O)C(=O)N1 (centres unmarked) [Compound 30] | +++ (survival rate (%)≤30)
13 | CN(C)c1ccc(Br)c(C2CC(=O)C(=CNc3cccc4c3CN(C3CCC(=O)NC3=O)C4=O)C(=O)C2)c1 (centres unmarked) [Compound 31] | +++ (survival rate (%)≤30)
14 | COc1ccc(C2CC(=O)C(=CNc3cccc4c3CN(C3CCC(=O)NC3=O)C4=O)C(=O)C2)cc1 (centres unmarked) [Compound 32] | +++ (survival rate (%)≤30)
15 | COC(=O)c1ccc(C2CC(=O)C(=CNc3cccc4c3CN(C3CCC(=O)NC3=O)C4=O)C(=O)C2)cc1 (centres unmarked) [Compound 33] | +++ (survival rate (%)≤30)
16 | O=C1CCC(N2Cc3c(NC=C4C(=O)CC(C5CCCCC5)CC4=O)cccc3C2=O)C(=O)N1 (centres unmarked) [Compound 131] | + (60≤survival rate (%)<90)

These molecules were tested on A549 (assay: Inhibition of tumor cell proliferation, CellTiter-Glo, A549). Details: compound concentration 50 μM, 72 hours.
Format: cell-based
Protocol: as §1, §2

Row | Compound | Inhibitory activity against proliferation (cell survival rate) A549
17 | O=C1CCC(N2Cc3c(NC=C4C(=O)CC(c5ccccc5F)CC4=O)cccc3C2=O)C(=O)N1 (centres unmarked) [Compound 24] | ++ (30<survival rate (%)≤60)
18 | O=C1CCC(N2Cc3c(NC=C4C(=O)CC(c5cccc6sccc56)CC4=O)cccc3C2=O)C(=O)N1 (centres unmarked) [Compound 27] | +++ (survival rate (%)≤30)
19 | O=C1CCC(N2Cc3c(NC=C4C(=O)CC(c5cccc6ccccc56)CC4=O)cccc3C2=O)C(=O)N1 (centres unmarked) [Compound 29] | +++ (survival rate (%)≤30)
20 | O=C1CCC(N2Cc3c(NC=C4C(=O)CC(c5c6ccccc6cc6ccccc56)CC4=O)cccc3C2=O)C(=O)N1 (centres unmarked) [Compound 30] | +++ (survival rate (%)≤30)
21 | CN(C)c1ccc(Br)c(C2CC(=O)C(=CNc3cccc4c3CN(C3CCC(=O)NC3=O)C4=O)C(=O)C2)c1 (centres unmarked) [Compound 31] | +++ (survival rate (%)≤30)
22 | COc1ccc(C2CC(=O)C(=CNc3cccc4c3CN(C3CCC(=O)NC3=O)C4=O)C(=O)C2)cc1 (centres unmarked) [Compound 32] | +++ (survival rate (%)≤30)
23 | COC(=O)c1ccc(C2CC(=O)C(=CNc3cccc4c3CN(C3CCC(=O)NC3=O)C4=O)C(=O)C2)cc1 (centres unmarked) [Compound 33] | +++ (survival rate (%)≤30)

What follows are molecules tested on MDA-MB-453 (assay: Inhibition of tumor cell proliferation, CellTiter-Glo, MDA-MB-453). Details: compound concentration 50 μM, 72 hours.
Format: cell-based
Protocol: as §1, §2

Row | Compound | Inhibitory activity against proliferation (cell survival rate) MDA-MB-453
24 | O=C1CCC(N2Cc3c(NC=C4C(=O)CC(c5ccccc5F)CC4=O)cccc3C2=O)C(=O)N1 (centres unmarked) [Compound 24] | ++ (30<survival rate (%)≤60)
25 | O=C1CCC(N2Cc3c(NC=C4C(=O)CC(c5cccc6sccc56)CC4=O)cccc3C2=O)C(=O)N1 (centres unmarked) [Compound 27] | +++ (survival rate (%)≤30)
26 | O=C1CCC(N2Cc3c(NC=C4C(=O)CC(c5cccc6ccccc56)CC4=O)cccc3C2=O)C(=O)N1 (centres unmarked) [Compound 29] | +++ (survival rate (%)≤30)
27 | O=C1CCC(N2Cc3c(NC=C4C(=O)CC(c5c6ccccc6cc6ccccc56)CC4=O)cccc3C2=O)C(=O)N1 (centres unmarked) [Compound 30] | +++ (survival rate (%)≤30)
28 | CN(C)c1ccc(Br)c(C2CC(=O)C(=CNc3cccc4c3CN(C3CCC(=O)NC3=O)C4=O)C(=O)C2)c1 (centres unmarked) [Compound 31] | +++ (survival rate (%)≤30)
29 | COc1ccc(C2CC(=O)C(=CNc3cccc4c3CN(C3CCC(=O)NC3=O)C4=O)C(=O)C2)cc1 (centres unmarked) [Compound 32] | ++ (30<survival rate (%)≤60)
30 | COC(=O)c1ccc(C2CC(=O)C(=CNc3cccc4c3CN(C3CCC(=O)NC3=O)C4=O)C(=O)C2)cc1 (centres unmarked) [Compound 33] | +++ (survival rate (%)≤30)
31 | O=C1CCC(N2Cc3c(NC=C4C(=O)CC(C5CCCCC5)CC4=O)cccc3C2=O)C(=O)N1 (centres unmarked) [Compound 131] | +++ (survival rate (%)≤30)

The molecules below were run on BxPC-3 (assay: Inhibition of tumor cell proliferation, CellTiter-Glo, BxPC-3). Details: compound concentration 50 μM, 72 hours.
Format: cell-based
Protocol: as §1, §2

Row | Compound | Inhibitory activity against proliferation (cell survival rate) BxPC-3
32 | O=C1CCC(N2Cc3c(NC=C4C(=O)CC(c5ccccc5F)CC4=O)cccc3C2=O)C(=O)N1 (centres unmarked) [Compound 24] | ++ (30<survival rate (%)≤60)
33 | O=C1CCC(N2Cc3c(NC=C4C(=O)CC(c5cccc6sccc56)CC4=O)cccc3C2=O)C(=O)N1 (centres unmarked) [Compound 27] | + (60≤survival rate (%)<90)
34 | O=C1CCC(N2Cc3c(NC=C4C(=O)CC(c5cccc6ccccc56)CC4=O)cccc3C2=O)C(=O)N1 (centres unmarked) [Compound 29] | ++ (30<survival rate (%)≤60)
35 | O=C1CCC(N2Cc3c(NC=C4C(=O)CC(c5c6ccccc6cc6ccccc56)CC4=O)cccc3C2=O)C(=O)N1 (centres unmarked) [Compound 30] | + (60≤survival rate (%)<90)
36 | CN(C)c1ccc(Br)c(C2CC(=O)C(=CNc3cccc4c3CN(C3CCC(=O)NC3=O)C4=O)C(=O)C2)c1 (centres unmarked) [Compound 31] | + (60≤survival rate (%)<90)
37 | COc1ccc(C2CC(=O)C(=CNc3cccc4c3CN(C3CCC(=O)NC3=O)C4=O)C(=O)C2)cc1 (centres unmarked) [Compound 32] | + (60≤survival rate (%)<90)
38 | COC(=O)c1ccc(C2CC(=O)C(=CNc3cccc4c3CN(C3CCC(=O)NC3=O)C4=O)C(=O)C2)cc1 (centres unmarked) [Compound 33] | + (60≤survival rate (%)<90)
39 | O=C1CCC(N2Cc3c(NC=C4C(=O)CC(C5CCCCC5)CC4=O)cccc3C2=O)C(=O)N1 (centres unmarked) [Compound 131] | + (60≤survival rate (%)<90)

Each molecule was assayed on RPMI-8226 (assay: Inhibition of tumor cell proliferation, CellTiter-Glo, RPMI-8226). Details: compound concentration 50 μM, 72 hours.
Format: cell-based
Protocol: as §1, §2

Row | Compound | Inhibitory activity against proliferation (cell survival rate) RPMI-8226
40 | O=C1CCC(N2Cc3c(NC=C4C(=O)CC(c5ccccc5F)CC4=O)cccc3C2=O)C(=O)N1 (centres unmarked) [Compound 24] | + (60≤survival rate (%)<90)
41 | O=C1CCC(N2Cc3c(NC=C4C(=O)CC(c5cccc6sccc56)CC4=O)cccc3C2=O)C(=O)N1 (centres unmarked) [Compound 27] | +++ (survival rate (%)≤30)
42 | O=C1CCC(N2Cc3c(NC=C4C(=O)CC(c5cccc6ccccc56)CC4=O)cccc3C2=O)C(=O)N1 (centres unmarked) [Compound 29] | +++ (survival rate (%)≤30)
43 | O=C1CCC(N2Cc3c(NC=C4C(=O)CC(c5c6ccccc6cc6ccccc56)CC4=O)cccc3C2=O)C(=O)N1 (centres unmarked) [Compound 30] | +++ (survival rate (%)≤30)
44 | CN(C)c1ccc(Br)c(C2CC(=O)C(=CNc3cccc4c3CN(C3CCC(=O)NC3=O)C4=O)C(=O)C2)c1 (centres unmarked) [Compound 31] | +++ (survival rate (%)≤30)
45 | COc1ccc(C2CC(=O)C(=CNc3cccc4c3CN(C3CCC(=O)NC3=O)C4=O)C(=O)C2)cc1 (centres unmarked) [Compound 32] | +++ (survival rate (%)≤30)
46 | COC(=O)c1ccc(C2CC(=O)C(=CNc3cccc4c3CN(C3CCC(=O)NC3=O)C4=O)C(=O)C2)cc1 (centres unmarked) [Compound 33] | +++ (survival rate (%)≤30)
47 | O=C1CCC(N2Cc3c(NC=C4C(=O)CC(C5CCCCC5)CC4=O)cccc3C2=O)C(=O)N1 (centres unmarked) [Compound 131] | +++ (survival rate (%)≤30)
